In patent publication US11231416B2, “Virus-like particle (VLP) based small molecule-protein interaction trap” (VIB VZW, priority 2015, dated 2022):

Columns and labels:
IGF1R = target: T1, IGF1R (Homo sapiens, UniProt P08069); assay: Viral trapping in VLPs, MS analysis; assay type: binding
T1 construct: endogenous in cells; host or cells: HEK293T

INSR = target: T2, INSR (Homo sapiens, UniProt P06213); assay: Viral trapping in VLPs, MS analysis; assay type: binding
T2 construct: endogenous in cells; host or cells: HEK293T

NQO2 = target: T3, NQO2 (Homo sapiens, UniProt P16083); assay: Viral trapping in VLPs, MS analysis; assay type: binding
T3 construct: endogenous in cells; host or cells: HEK293T

APMAP = target: T4, APMAP (Homo sapiens, UniProt Q9HDC9); assay: Viral trapping in VLPs, MS analysis; assay type: binding; conditions: all proteins (incl. low confidence identifications)
T4 construct: endogenous in cells; host or cells: HEK293T

BZW1 = target: T5, BZW1 (Homo sapiens, UniProt Q7L1Q6); assay: Viral trapping in VLPs, MS analysis; assay type: binding; conditions: all proteins (incl. low confidence identifications)
T5 construct: endogenous in cells; host or cells: HEK293T

CAMKV = target: T6, CAMKV (Homo sapiens, UniProt Q8NCB2); assay: Viral trapping in VLPs, MS analysis; assay type: binding; conditions: all proteins (incl. low confidence identifications)
T6 construct: endogenous in cells; host or cells: HEK293T

CTNNA2 = target: T7, CTNNA2 (Homo sapiens, UniProt P26232); assay: Viral trapping in VLPs, MS analysis; assay type: binding; conditions: all proteins (incl. low confidence identifications)
T7 construct: endogenous in cells; host or cells: HEK293T

DYNC2H1 = target: T8, DYNC2H1 (Homo sapiens, UniProt Q8NCM8); assay: Viral trapping in VLPs, MS analysis; assay type: binding; conditions: all proteins (incl. low confidence identifications)
T8 construct: endogenous in cells; host or cells: HEK293T

FKBP3 = target: T9, FKBP3 (Homo sapiens, UniProt Q00688); assay: Viral trapping in VLPs, MS analysis; assay type: binding; conditions: all proteins (incl. low confidence identifications)
T9 construct: endogenous in cells; host or cells: HEK293T

GAK = target: T10, GAK (Homo sapiens, UniProt O14976); assay: Viral trapping in VLPs, MS analysis; assay type: binding; conditions: all proteins (incl. low confidence identifications)
T10 construct: endogenous in cells; host or cells: HEK293T

GEMIN5 = target: T11, GEMIN5 (Homo sapiens, UniProt Q8TEQ6); assay: Viral trapping in VLPs, MS analysis; assay type: binding
T11 construct: endogenous in cells; host or cells: HEK293T

LMAN1 = target: T12, LMAN1 (Homo sapiens, UniProt P49257); assay: Viral trapping in VLPs, MS analysis; assay type: binding; conditions: all proteins (incl. low confidence identifications)
T12 construct: endogenous in cells; host or cells: HEK293T

MBTPS1 = target: T13, MBTPS1 (Homo sapiens, UniProt Q14703); assay: Viral trapping in VLPs, MS analysis; assay type: binding; conditions: all proteins (incl. low confidence identifications)
T13 construct: endogenous in cells; host or cells: HEK293T

MFI2 = target: T14, MFI2 (Homo sapiens, UniProt P08582); assay: Viral trapping in VLPs, MS analysis; assay type: binding; conditions: all proteins (incl. low confidence identifications)
T14 construct: endogenous in cells; host or cells: HEK293T

MST1R = target: T15, MST1R (Homo sapiens, UniProt Q04912); assay: Viral trapping in VLPs, MS analysis; assay type: binding; conditions: all proteins (incl. low confidence identifications)
T15 construct: endogenous in cells; host or cells: HEK293T

MYO1D = target: T16, MYO1D (Homo sapiens, UniProt O94832); assay: Viral trapping in VLPs, MS analysis; assay type: binding; conditions: all proteins (incl. low confidence identifications)
T16 construct: endogenous in cells; host or cells: HEK293T

NEK2 = target: T17, NEK2 (Homo sapiens, UniProt P51955); assay: Viral trapping in VLPs, MS analysis; assay type: binding; conditions: all proteins (incl. low confidence identifications)
T17 construct: endogenous in cells; host or cells: HEK293T

NT5C = target: T18, NT5C (Homo sapiens, UniProt Q8TCD5); assay: Viral trapping in VLPs, MS analysis; assay type: binding; conditions: all proteins (incl. low confidence identifications)
T18 construct: endogenous in cells; host or cells: HEK293T

PPM1L = target: T19, PPM1L (Homo sapiens, UniProt Q5SGD2); assay: Viral trapping in VLPs, MS analysis; assay type: binding; conditions: all proteins (incl. low confidence identifications)
T19 construct: endogenous in cells; host or cells: HEK293T

RCL = target: T20, RCL (Homo sapiens, UniProt O43598); assay: Viral trapping in VLPs, MS analysis; assay type: binding
T20 construct: endogenous in cells; host or cells: HEK293T

RPS6KA1 = target: T21, RPS6KA1 (Homo sapiens, UniProt Q15418); assay: Viral trapping in VLPs, MS analysis; assay type: binding; conditions: all proteins (incl. low confidence identifications)
T21 construct: endogenous in cells; host or cells: HEK293T

TMEM30A = target: T22, TMEM30A (Homo sapiens, UniProt Q9NV96); assay: Viral trapping in VLPs, MS analysis; assay type: binding; conditions: all proteins (incl. low confidence identifications)
T22 construct: endogenous in cells; host or cells: HEK293T

TMEM9 = target: T23, TMEM9 (Homo sapiens, UniProt Q9P0T7); assay: Viral trapping in VLPs, MS analysis; assay type: binding; conditions: all proteins (incl. low confidence identifications)
T23 construct: endogenous in cells; host or cells: HEK293T

TMX1 = target: T24, TMX1 (Homo sapiens, UniProt Q9H3N1); assay: Viral trapping in VLPs, MS analysis; assay type: binding; conditions: all proteins (incl. low confidence identifications)
T24 construct: endogenous in cells; host or cells: HEK293T

USP7 = target: T25, USP7 (Homo sapiens, UniProt Q93009); assay: Viral trapping in VLPs, MS analysis; assay type: binding; conditions: all proteins (incl. low confidence identifications)
T25 construct: endogenous in cells; host or cells: HEK293T

YIPF5 = target: T26, YIPF5 (Homo sapiens, UniProt Q969M3); assay: Viral trapping in VLPs, MS analysis; assay type: binding; conditions: all proteins (incl. low confidence identifications)
T26 construct: endogenous in cells; host or cells: HEK293T

ZNF827 = target: T27, ZNF827 (Homo sapiens, UniProt Q17R98); assay: Viral trapping in VLPs, MS analysis; assay type: binding; conditions: all proteins (incl. low confidence identifications)
T27 construct: endogenous in cells; host or cells: HEK293T

HTRA3 = conditions: all proteins (incl. low confidence identifications)
[1] = all proteins (incl. low confidence identifications)
[2] = proteins identified with >1 peptide (high confidence)

T1 sequence (P08069 31-1367): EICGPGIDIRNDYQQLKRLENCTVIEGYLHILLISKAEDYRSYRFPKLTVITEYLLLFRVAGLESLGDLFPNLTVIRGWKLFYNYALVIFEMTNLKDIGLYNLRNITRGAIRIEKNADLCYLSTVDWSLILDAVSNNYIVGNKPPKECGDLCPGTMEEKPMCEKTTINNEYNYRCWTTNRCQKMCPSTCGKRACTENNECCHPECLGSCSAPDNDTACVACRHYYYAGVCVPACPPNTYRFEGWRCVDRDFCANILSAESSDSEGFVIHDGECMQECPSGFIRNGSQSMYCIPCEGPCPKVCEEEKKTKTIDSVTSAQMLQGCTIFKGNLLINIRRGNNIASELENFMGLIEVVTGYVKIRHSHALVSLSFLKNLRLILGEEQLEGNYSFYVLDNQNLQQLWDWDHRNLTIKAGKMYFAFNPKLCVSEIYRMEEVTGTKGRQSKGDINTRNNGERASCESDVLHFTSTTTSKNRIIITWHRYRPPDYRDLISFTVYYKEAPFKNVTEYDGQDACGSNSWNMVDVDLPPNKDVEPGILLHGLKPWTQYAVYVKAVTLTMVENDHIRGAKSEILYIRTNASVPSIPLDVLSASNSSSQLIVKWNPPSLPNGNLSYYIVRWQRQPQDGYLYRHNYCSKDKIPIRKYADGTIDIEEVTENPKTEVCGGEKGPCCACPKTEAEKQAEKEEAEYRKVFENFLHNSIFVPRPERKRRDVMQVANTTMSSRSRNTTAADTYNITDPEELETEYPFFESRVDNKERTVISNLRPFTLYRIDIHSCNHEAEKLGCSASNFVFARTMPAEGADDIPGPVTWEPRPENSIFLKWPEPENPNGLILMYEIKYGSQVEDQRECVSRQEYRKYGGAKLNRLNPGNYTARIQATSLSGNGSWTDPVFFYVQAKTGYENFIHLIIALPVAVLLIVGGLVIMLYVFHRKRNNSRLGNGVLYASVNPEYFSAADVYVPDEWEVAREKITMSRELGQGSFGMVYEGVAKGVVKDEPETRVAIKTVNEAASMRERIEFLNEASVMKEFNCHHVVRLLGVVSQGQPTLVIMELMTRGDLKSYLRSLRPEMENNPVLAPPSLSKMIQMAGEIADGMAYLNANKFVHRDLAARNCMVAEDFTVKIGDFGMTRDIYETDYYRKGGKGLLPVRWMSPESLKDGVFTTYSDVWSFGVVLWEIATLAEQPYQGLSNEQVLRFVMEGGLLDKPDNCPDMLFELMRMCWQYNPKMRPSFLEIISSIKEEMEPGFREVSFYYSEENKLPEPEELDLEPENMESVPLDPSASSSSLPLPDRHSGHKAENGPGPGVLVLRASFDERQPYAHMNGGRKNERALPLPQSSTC
T2 sequence (P06213 28-1382): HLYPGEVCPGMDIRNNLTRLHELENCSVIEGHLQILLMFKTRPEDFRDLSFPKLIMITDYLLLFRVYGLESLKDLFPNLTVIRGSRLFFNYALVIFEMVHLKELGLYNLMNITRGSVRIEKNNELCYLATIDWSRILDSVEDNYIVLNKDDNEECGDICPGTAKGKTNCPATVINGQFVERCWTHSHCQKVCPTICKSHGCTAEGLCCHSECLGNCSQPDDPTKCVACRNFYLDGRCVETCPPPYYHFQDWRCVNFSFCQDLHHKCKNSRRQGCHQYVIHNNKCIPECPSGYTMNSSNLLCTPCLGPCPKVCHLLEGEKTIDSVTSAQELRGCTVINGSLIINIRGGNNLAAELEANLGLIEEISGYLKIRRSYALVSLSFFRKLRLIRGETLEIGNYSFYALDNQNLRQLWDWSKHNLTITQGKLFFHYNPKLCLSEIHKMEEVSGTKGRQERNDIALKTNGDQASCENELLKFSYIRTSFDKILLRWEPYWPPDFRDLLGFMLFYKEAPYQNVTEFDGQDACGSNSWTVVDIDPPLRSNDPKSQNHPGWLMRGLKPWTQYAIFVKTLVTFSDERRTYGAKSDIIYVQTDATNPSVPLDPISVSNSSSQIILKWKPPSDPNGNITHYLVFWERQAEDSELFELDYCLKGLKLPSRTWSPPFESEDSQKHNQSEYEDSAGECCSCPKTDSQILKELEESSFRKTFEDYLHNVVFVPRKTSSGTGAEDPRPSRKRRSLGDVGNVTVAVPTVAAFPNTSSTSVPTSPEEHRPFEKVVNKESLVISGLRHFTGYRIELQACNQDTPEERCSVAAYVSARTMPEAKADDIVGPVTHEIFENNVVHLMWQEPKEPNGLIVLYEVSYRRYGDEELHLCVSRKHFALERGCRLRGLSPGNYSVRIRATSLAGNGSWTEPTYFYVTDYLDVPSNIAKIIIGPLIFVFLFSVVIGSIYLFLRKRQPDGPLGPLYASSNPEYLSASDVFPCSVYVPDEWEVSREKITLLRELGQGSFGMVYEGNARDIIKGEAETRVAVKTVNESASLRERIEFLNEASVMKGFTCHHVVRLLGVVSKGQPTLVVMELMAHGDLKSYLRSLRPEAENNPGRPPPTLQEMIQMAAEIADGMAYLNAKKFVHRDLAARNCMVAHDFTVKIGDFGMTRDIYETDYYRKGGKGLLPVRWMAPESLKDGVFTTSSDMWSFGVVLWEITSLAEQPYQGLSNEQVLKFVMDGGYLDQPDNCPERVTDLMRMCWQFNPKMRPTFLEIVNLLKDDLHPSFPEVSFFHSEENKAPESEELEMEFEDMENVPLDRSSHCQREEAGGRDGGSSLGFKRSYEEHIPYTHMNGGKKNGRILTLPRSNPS
T3 sequence (P16083 whole entry): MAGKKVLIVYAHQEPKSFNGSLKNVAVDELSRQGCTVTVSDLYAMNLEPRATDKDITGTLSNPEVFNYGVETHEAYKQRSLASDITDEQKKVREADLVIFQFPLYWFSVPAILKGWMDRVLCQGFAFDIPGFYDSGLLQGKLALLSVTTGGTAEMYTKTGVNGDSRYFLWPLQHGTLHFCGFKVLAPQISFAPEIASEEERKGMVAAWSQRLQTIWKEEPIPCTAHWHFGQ
T20 sequence (O43598 whole entry): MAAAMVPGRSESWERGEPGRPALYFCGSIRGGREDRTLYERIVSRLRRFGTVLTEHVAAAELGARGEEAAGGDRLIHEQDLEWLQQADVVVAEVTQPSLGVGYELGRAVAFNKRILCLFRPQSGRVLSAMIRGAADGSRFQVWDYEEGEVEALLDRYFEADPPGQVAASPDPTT
T11 sequence (Q8TEQ6 whole entry): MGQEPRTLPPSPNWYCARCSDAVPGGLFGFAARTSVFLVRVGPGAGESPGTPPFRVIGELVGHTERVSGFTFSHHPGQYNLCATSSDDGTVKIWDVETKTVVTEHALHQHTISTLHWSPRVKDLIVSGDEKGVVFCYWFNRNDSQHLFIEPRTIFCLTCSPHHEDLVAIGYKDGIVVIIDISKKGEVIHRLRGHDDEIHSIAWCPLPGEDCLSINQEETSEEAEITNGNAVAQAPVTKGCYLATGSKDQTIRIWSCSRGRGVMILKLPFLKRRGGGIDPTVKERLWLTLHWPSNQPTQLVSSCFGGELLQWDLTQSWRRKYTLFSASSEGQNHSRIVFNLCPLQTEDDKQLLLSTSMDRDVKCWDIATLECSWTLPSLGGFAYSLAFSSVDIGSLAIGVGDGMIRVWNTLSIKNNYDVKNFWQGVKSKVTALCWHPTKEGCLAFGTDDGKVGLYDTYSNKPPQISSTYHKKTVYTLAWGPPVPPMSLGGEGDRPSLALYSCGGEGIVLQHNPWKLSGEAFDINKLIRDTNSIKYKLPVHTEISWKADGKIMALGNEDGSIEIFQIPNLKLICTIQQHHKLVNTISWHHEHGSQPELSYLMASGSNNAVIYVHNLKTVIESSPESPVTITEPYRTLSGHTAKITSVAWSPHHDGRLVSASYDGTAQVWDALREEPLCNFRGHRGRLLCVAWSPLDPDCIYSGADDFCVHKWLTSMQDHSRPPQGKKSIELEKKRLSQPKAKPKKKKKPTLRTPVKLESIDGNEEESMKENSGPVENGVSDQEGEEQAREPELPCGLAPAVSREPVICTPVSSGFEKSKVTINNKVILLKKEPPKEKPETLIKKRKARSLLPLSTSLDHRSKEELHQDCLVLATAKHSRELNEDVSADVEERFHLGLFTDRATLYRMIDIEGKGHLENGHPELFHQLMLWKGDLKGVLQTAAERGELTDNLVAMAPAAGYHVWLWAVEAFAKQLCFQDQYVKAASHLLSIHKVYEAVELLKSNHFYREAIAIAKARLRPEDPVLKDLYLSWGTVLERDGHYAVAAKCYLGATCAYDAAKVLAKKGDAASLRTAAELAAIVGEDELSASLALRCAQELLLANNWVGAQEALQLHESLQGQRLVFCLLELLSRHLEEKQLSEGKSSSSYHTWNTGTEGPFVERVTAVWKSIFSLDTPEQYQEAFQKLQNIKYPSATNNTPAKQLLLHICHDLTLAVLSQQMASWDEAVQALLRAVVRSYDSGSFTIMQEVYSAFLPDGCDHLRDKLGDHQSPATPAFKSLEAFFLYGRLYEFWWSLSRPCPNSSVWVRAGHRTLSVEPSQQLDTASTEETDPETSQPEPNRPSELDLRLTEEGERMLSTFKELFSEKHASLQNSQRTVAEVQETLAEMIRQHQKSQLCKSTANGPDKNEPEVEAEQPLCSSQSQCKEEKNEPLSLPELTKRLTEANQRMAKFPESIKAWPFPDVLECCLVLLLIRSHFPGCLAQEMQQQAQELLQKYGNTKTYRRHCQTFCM
T18 sequence (Q8TCD5 whole entry): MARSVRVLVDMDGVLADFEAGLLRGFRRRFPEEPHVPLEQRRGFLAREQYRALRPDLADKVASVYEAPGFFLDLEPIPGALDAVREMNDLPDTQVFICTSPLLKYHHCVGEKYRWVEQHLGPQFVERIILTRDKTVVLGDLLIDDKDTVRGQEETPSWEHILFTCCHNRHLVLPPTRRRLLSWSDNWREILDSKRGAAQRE
T26 sequence (Q969M3 whole entry): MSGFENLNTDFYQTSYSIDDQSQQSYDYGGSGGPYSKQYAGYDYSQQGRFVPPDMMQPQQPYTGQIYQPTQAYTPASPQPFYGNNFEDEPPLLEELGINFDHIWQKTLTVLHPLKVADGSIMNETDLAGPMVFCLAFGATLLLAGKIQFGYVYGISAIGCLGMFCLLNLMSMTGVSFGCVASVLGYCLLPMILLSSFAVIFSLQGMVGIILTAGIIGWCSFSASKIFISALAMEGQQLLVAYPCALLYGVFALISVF

Recurrence (x/2) (IGF1R; [1]): 2 x/2
Recurrence (x/2) (IGF1R; [2]): 2 x/2
Recurrence (x/2) (INSR; [1]): 2 x/2
Recurrence (x/2) (INSR; [2]): 2 x/2
Recurrence (x/2) (NQO2; [1]): 2 x/2
Recurrence (x/2) (NQO2; [2]): 1 x/2
Recurrence (x/2) (APMAP): 1 x/2
Recurrence (x/2) (BZW1): 1 x/2
Recurrence (x/2) (CAMKV): 1 x/2
Recurrence (x/2) (CTNNA2): 1 x/2
Recurrence (x/2) (DYNC2H1): 1 x/2
Recurrence (x/2) (FKBP3): 1 x/2
Recurrence (x/2) (GAK): 1 x/2
Recurrence (x/2) (GEMIN5; [1]): 1 x/2
Recurrence (x/2) (GEMIN5; [2]): 1 x/2
Recurrence (x/2) (LMAN1): 1 x/2
Recurrence (x/2) (MBTPS1): 1 x/2
Recurrence (x/2) (MFI2): 1 x/2
Recurrence (x/2) (MST1R): 1 x/2
Recurrence (x/2) (MYO1D): 1 x/2
Recurrence (x/2) (NEK2): 1 x/2
Recurrence (x/2) (NT5C): 1 x/2
Recurrence (x/2) (PPM1L): 1 x/2
Recurrence (x/2) (RCL; [1]): 1 x/2
Recurrence (x/2) (RCL; [2]): 1 x/2
Recurrence (x/2) (RPS6KA1): 1 x/2
Recurrence (x/2) (TMEM30A): 1 x/2
Recurrence (x/2) (TMEM9): 1 x/2
Recurrence (x/2) (TMX1): 1 x/2
Recurrence (x/2) (USP7): 1 x/2
Recurrence (x/2) (YIPF5): 1 x/2
Recurrence (x/2) (ZNF827): 1 x/2
SMILES: CN(Cc1cnc2nc(N)nc(N)c2n1)c1ccc(C(=O)NC(CCC(=O)NCCOCCOCCOCCOCCOCCn2cc(CN3CCN(c4ccc(Nc5nc(NC6CCCCC6)c6nc[nH]c6n5)cc4)CC3)nn2)C(=O)O)cc1 (stereo not drawn) [MTX-PEG6-reversine]
Recurrence (x/2) (HTRA3): 1 x/2
